The subject of test [1] is phospho-STAT5. The test can be described thus: In vitro T-5224 treatment of freshly isolated mouse adhesion fibroblasts, phospho-flow cytometry. The format is cell-based. The settings on record: T-5224 10 μM, 24 hours, versus vehicle control (FIG. 22a). An excerpt: (§1) Recruitment of Human Specimens. Human abdominal adhesion and control specimens were obtained at the Stanford Hospital under Stanford University's IRB approval. Clinical inclusion criteria were as follows: For adhesion specimens—patients must have had at least one prior abdominal surgery, for control specimens—patients must have had no history of prior abdominal surgery. For all patients, surgery must be elective, and there must be no evidence of active inflammation/infection at time of operation. Written, informed consent was obtained from the patient in the pre-op holding area prior to surgery. Tissue was collected in the operating room, placed directly into sterile saline, and kept on ice for transport. Sample preparation and FACS isolation. Adhesion or control tissue from mouse or human specimens was minced on ice. The tissue was then digested for 60 minutes in a 37° C. water bath agitator in 2 mg/mL collagenase (collagenase type IV, ThermoFisher) digest buffer in Medium 199 (HyClone, GE Healthcare) consisting of 5% fetal bovine serum (Gibco FBS, ThermoFisher), DNase I (Worthington), Poloxamer 188 (Cat. P5556-100ML, Sigma), HEPES, and CaCl2. […] Cells were counted and re-suspended in FACS buffer. […]
A general note: Flow cytometry measures light scatter and fluorescence of single cells or particles in a stream.

Test [2] concerns phospho-JUN. Described as above. Particulars: T-5224 10 μM, 24 hours, versus vehicle control (FIG. 22a). The format is cell-based.
From the text: as §1

Test [3] concerns phospho-STAT5. Kind of test: In vivo JUN suppression in mouse adhesion model, phospho-flow cytometry of adhesion fibroblasts. The settings on record: applied intra-abdominally (10 uM in DMSO, locally at time of adhesion surgery), wild-type and JUN mice, 24 hours, versus vehicle control (FIG. 5d, 22b). How it is done: (§2) Mouse Model for Adhesions. A similar model for abdominal adhesion formation has been described previously by our laboratory. In brief, mice were anesthetized with inhaled isoflurane (Henry Schein Animal Health,) at a concentration of 1-2% in oxygen at 3 L/min. Ophthalmic ointment (Puralube petrolatum, Dechra Veterinary Products) was applied to the cornea to prevent desiccation. Buprenorphine (Buprenex, Reckitt Benckiser Pharmaceuticals Inc.) was administered subcutaneously prior to the surgery at a dose of 0.1 mg/kg. The mice were placed in the supine position on a clean operating surface. A heating pad was used beneath the surgical field to keep the animals warm throughout the procedure. The abdomens were shaved, and the skin of the abdomen was sterilized with three applications of betadine followed by 70% ethanol. During the procedure, the respiratory rate of the animals was monitored, and the isoflurane was titrated accordingly. A vertical midline skin incision was made in the abdomen with sharp scissors. The underlying abdominal wall was then opened vertically. The cecum was located and exteriorized. The cecal wall was abraded gently with 150-grit sandpaper. The parietal peritoneum along the abdominal wall was similarly abraded with sandpaper and three, single, interrupted, 4-0, silk sutures were placed into the right abdominal sidewall, which served as a nidus for adhesion formation. The cecum was then placed anatomically adjacent to the right abdominal wall. The abdomen was briefly irrigated with warmed, sterile, normal saline. The irrigant was removed by blotting with a gauze sponge. The abdominal wall incision was closed with running 6-0 Monocryl suture, and the skin incision was closed with 6-0 nylon, horizontal mattress sutures. The animals were monitored during recovery from anesthesia. Additional buprenorphine was given every 6-12 hours as needed for pain. For sham surgery, animals were treated in an identical manner; however, incisions were closed without manipulation of abdominal organs.
(§3) In Vivo JUN Induction and Suppression. Doxycycline (2 mg/mL) or T-5224 (Cayman Chem, 10 uM) resuspended in DMSO were applied locally to adhesion sites at the time of adhesion surgery for JUN induction (in JUN mice) or suppression (in JUN and WT mice), respectively. Vehicle only was used for control.
(§4) Recruitment of Human Specimens. Human abdominal adhesion and control specimens were obtained at the Stanford Hospital under Stanford University's IRB approval. Clinical inclusion criteria were as follows: For adhesion specimens—patients must have had at least one prior abdominal surgery, for control specimens—patients must have had no history of prior abdominal surgery. […] Cells were counted and re-suspended in FACS buffer. […]

Test [4] concerns phospho-JUN. The description is as above. The settings on record: applied intra-abdominally (10 uM in DMSO, locally at time of adhesion surgery), wild-type and JUN mice, 24 hours, versus vehicle control (FIG. 5d, 22b). The protocol: as §2, §3, §4
Test [5] concerns abdominal adhesion formation. Kind of test: Mouse model for abdominal adhesions, gross and histologic scoring of adhesion tissue. The format is in vivo. Particulars: local application at surgery, JUN and wild-type mice. The protocol:
(§5) Mouse Model for Adhesions. A similar model for abdominal adhesion formation has been described previously by our laboratory. In brief, mice were anesthetized with inhaled isoflurane (Henry Schein Animal Health,) at a concentration of 1-2% in oxygen at 3 L/min. Ophthalmic ointment (Puralube petrolatum, Dechra Veterinary Products) was applied to the cornea to prevent desiccation. Buprenorphine (Buprenex, Reckitt Benckiser Pharmaceuticals Inc.) was administered subcutaneously prior to the surgery at a dose of 0.1 mg/kg. The mice were placed in the supine position on a clean operating surface. A heating pad was used beneath the surgical field to keep the animals warm throughout the procedure. The abdomens were shaved, and the skin of the abdomen was sterilized with three applications of betadine followed by 70% ethanol. During the procedure, the respiratory rate of the animals was monitored, and the isoflurane was titrated accordingly. A vertical midline skin incision was made in the abdomen with sharp scissors. The underlying abdominal wall was then opened vertically. The cecum was located and exteriorized. The cecal wall was abraded gently with 150-grit sandpaper. […] The animals were monitored during recovery from anesthesia. […]

The subject of a further test is PDGFRA. The test can be described thus: Immunofluorescent staining of adhesion tissue after in vivo JUN inhibition. Also noted: species or system mouse. The settings on record: IF staining of adhesion tissue, JUN mice induced with doxycycline (FIG. 6e). The protocol: as §5
The test system of test [6] is phospho-JUN. The description is as above. The settings on record: IF staining of adhesion tissue, JUN mice induced with doxycycline, versus vehicle control (FIG. 6e-f). Also noted: species or system mouse. The protocol:
as §5

For `O=C(O)CCc1cc(C(=O)c2ccc(OC3CCCC3)cc2O)ccc1OCc1ccc2c(=O)[nH]oc2c1` [T-5224, 3-[5-(4-Cyclopentyloxy-2-hydroxybenzoyl)-2-[(3-oxo-1,2-benzoxazol-6-yl)methoxy]phenyl]propanoic acid], the phospho-STAT5 expression entry is on record as “significantly reduced” with phospho-STAT5 [1], “significantly decreased” with phospho-STAT5 [3] and “significant decrease” in the test on phospho-STAT5 [3] (listed as JUN inhibitor). The phospho-JUN expression result in the test on phospho-JUN [2] is listed as “significantly reduced”; with phospho-JUN [4], “significantly decreased”; in the test on phospho-JUN [4] (listed as JUN inhibitor), “significant decrease”. In addition, the “adhesions, histologic assessment” value in test [5] (H&E and trichrome, versus vehicle control (FIG. 6a-d)) was “significantly thinner and less fibrotic”. Further, the “adhesion formation, gross assessment” value in test [5] (POD3, versus vehicle control (FIG. 5e-f)) is reported as “dramatic decrease”. Also, in the test with PDGFRA, the “PDGFRA expression in adhesion tissue” value is on record as “Co-suppression”. The “JUN expression at the tissue level (p-JUN+ cells)” value in the test with phospho-JUN [6] is “decreased”.
